Assay results taken from ChEMBL document CHEMBL1201862, “PubChem BioAssay data set” (2004).
Activity calls are given as the source filed them.

Tests used:
Bcl-2-like protein 10 = target: T1, Bcl-2-like protein 10 (Homo sapiens, UniProt Q9HD36); test: Bcl-B/TR3 peptide binding disruption – biochemical, fluorescence polarization, FITC-TR3 peptide, selectivity assay for Bfl-1 inhibitor project, primary screen (AID 748);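 also: fluorescence polarization from a fluorescein-labelled TR3 peptide binding purified Bcl-B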
T1 sequence (Q9HD36 whole entry): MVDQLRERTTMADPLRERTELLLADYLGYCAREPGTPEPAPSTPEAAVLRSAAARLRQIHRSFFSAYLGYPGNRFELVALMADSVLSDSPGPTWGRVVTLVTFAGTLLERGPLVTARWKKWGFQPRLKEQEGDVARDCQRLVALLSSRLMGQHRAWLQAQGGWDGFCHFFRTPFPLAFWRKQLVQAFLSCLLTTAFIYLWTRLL

[1] = target: DNA dC->dU-editing enzyme APOBEC-3G (Homo sapiens, UniProt Q9HC16); test: Dose Response confirmation of small molecule APOBEC3G DNA Deaminase Inhibitors via a fluorescence-based single-stranded DNA deaminase assay. [Related pubchem assays (depositor defined):AID493012, AID493028]; format: functional
Sequence of DNA dC->dU-editing enzyme APOBEC-3G (Q9HC16 whole entry): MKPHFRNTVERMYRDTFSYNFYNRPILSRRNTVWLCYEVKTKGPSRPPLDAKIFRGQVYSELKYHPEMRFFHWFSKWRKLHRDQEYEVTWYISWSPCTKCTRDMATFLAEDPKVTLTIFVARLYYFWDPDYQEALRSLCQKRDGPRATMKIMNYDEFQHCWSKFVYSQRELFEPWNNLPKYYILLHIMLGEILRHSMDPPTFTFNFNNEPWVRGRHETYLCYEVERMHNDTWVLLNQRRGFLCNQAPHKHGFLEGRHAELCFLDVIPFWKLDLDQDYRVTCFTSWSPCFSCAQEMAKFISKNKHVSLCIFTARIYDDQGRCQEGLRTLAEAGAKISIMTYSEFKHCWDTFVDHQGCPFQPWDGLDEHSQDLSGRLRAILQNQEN

Beta-galactosidase = Beta-galactosidase (Escherichia coli, UniProt Q8VNN2); format: functional
Sequence of Beta-galactosidase (Q8VNN2 whole entry): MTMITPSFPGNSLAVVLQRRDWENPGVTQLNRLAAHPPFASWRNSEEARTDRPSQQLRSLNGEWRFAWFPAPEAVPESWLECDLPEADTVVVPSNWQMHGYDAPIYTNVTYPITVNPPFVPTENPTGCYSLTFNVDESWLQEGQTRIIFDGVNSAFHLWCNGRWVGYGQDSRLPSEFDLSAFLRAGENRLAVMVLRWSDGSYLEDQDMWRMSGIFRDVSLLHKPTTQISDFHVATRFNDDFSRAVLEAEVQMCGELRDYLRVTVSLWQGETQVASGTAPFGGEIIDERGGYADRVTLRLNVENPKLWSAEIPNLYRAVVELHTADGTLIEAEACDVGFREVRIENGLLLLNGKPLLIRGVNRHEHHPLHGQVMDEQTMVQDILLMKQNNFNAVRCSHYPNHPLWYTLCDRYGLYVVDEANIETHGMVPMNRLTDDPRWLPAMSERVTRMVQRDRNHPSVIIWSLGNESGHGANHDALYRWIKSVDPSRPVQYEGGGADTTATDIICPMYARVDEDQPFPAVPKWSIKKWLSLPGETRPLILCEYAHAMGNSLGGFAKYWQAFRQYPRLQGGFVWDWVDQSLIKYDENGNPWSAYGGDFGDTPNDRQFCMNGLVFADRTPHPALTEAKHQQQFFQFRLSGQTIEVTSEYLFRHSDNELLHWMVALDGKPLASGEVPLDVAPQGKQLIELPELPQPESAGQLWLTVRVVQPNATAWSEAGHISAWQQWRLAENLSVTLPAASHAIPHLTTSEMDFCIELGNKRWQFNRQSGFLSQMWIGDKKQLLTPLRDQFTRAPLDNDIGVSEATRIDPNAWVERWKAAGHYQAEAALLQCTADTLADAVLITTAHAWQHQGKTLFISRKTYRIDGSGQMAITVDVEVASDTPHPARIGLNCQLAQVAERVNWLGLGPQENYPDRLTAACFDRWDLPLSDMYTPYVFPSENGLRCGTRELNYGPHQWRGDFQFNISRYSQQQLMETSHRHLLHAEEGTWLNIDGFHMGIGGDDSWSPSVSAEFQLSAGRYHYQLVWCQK

[2] = target: T2, Kappa-type opioid receptor (Homo sapiens, UniProt P41145); format: functional
T2 sequence (P41145 whole entry): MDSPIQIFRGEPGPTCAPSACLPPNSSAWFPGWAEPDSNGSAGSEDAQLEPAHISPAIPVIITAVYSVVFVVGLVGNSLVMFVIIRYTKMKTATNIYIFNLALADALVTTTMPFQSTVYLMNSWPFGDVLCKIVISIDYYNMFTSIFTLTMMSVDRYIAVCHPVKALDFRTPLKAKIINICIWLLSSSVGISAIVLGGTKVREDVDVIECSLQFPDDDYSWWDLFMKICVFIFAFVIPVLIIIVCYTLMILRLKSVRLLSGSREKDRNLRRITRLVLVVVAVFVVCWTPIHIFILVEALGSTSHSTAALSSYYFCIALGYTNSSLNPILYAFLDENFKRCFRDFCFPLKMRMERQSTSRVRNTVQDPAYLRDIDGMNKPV

[3] = target: T2, Kappa-type opioid receptor; format: functional; remark: listed apart in the source
[4] = target: Voltage-dependent T-type calcium channel subunit alpha-1H (Homo sapiens, UniProt O95180); format: functional;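 also: channel activity triggered by adding a high calcium stimulation buffer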
Sequence of Voltage-dependent T-type calcium channel subunit alpha-1H (O95180 whole entry): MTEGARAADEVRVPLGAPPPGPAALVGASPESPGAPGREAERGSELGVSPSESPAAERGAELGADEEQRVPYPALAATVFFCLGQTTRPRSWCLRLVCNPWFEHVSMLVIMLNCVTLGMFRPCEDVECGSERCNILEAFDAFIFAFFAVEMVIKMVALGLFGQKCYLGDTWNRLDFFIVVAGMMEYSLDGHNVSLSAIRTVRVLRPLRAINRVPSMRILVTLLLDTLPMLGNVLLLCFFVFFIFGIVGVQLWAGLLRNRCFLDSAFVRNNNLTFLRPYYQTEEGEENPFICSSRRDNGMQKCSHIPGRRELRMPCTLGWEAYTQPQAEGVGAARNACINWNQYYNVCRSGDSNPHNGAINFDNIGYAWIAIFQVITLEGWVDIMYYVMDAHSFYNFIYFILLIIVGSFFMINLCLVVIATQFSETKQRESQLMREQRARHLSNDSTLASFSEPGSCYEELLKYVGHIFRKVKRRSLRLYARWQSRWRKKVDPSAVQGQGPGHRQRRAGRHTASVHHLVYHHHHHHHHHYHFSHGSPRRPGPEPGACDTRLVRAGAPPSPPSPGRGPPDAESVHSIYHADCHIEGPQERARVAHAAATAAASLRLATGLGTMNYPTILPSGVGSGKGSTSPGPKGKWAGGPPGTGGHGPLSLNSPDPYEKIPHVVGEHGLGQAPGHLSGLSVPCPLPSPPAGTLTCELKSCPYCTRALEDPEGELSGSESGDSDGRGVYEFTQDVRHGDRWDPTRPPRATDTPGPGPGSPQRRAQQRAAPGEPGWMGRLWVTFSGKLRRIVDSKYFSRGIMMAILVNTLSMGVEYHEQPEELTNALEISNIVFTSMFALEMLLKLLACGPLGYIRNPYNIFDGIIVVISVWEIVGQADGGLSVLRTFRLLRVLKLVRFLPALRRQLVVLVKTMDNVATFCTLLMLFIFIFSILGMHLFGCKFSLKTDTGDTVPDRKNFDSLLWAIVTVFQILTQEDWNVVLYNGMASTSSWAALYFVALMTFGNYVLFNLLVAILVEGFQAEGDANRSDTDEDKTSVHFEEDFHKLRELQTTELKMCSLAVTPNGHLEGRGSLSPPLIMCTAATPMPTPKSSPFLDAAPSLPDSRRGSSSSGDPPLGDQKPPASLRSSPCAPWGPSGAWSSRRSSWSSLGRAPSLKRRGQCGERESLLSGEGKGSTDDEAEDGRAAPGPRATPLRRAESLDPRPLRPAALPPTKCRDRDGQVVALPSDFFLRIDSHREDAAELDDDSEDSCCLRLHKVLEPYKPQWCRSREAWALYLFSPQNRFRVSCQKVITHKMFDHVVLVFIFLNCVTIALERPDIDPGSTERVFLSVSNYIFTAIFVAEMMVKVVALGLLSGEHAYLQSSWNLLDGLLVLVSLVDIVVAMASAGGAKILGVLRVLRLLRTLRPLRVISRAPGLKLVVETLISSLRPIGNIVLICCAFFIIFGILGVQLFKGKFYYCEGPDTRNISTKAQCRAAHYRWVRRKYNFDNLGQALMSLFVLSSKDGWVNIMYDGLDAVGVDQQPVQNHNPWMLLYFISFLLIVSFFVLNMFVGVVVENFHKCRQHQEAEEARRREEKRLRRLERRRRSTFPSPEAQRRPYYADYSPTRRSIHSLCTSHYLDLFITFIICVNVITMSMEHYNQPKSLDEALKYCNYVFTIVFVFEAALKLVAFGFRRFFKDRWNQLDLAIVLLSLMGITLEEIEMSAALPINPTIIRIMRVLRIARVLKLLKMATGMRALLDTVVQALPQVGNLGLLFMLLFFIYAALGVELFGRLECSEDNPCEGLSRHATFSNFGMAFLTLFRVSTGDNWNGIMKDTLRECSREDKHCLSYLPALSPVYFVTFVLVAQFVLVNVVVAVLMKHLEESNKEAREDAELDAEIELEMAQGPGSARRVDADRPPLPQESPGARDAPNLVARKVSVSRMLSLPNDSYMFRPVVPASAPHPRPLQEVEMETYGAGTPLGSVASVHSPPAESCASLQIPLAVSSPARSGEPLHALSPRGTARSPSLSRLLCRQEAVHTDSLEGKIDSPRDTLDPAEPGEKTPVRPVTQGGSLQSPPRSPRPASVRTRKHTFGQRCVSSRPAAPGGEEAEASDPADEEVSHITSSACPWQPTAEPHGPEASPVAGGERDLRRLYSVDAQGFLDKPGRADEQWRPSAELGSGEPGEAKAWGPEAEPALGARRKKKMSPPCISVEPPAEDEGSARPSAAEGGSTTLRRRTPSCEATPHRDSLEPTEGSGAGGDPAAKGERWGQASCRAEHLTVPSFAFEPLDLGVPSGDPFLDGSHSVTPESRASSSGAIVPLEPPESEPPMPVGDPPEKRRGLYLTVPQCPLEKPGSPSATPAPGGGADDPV

[5] = Trypanosoma cruzi growth suppression in host cells – NIH3T3 host cells, beta-gal luminescence, confirmation (AID 2044); format: functional, cell-based;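 also: intracellular parasites grown in NIH/3T3 mouse fibroblasts as host cells; luminescent beta-galactosidase reporter signal from transgenic T. cruzi replicating inside host cells; inhibitors lower the luminescence signal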
[6] = NIH3T3 cell viability loss – ATP luminescence, mouse fibroblasts, counter-screen, dose response (AID 2010); format: functional, cell-based;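 also: cells exposed to compound for about 90 hours before reading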
[7] = target: T3, Short transient receptor potential channel 4 (Mus musculus, UniProt Q9QUQ5); test: block of DAMGO-driven TRPC4 calcium entry – cell-based, HEK293 TRPC4/mu-opioid, Fluo-4 calcium, dose response (AID 434942); format: functional;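 also: potency of inhibitors blocking the TRPC4 calcium response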
T3 sequence (Q9QUQ5 whole entry): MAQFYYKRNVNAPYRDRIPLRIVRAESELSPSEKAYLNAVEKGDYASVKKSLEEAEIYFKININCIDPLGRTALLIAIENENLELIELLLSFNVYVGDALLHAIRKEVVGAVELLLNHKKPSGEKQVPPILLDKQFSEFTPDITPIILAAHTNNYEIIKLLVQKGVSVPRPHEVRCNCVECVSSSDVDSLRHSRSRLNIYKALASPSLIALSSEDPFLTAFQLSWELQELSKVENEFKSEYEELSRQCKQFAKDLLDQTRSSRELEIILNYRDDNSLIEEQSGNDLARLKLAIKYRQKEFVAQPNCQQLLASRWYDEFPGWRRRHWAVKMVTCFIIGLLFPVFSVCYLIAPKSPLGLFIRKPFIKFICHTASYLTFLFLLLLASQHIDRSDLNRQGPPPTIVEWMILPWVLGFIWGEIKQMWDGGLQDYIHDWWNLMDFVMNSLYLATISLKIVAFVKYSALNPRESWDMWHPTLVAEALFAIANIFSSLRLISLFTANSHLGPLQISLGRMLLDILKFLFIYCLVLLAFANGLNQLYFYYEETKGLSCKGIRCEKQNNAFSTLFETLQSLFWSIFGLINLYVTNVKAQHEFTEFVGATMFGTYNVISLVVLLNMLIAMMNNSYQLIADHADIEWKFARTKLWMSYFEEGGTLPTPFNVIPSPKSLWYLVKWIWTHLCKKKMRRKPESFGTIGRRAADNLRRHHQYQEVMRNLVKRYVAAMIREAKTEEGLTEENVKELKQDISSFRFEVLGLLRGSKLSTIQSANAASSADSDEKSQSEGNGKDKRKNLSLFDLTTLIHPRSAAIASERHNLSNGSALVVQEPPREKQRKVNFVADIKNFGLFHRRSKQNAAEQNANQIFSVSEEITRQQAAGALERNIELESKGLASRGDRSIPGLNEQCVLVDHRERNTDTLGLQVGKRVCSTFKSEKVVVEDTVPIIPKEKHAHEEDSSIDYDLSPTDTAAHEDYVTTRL

[8] = NIH-3T3 fibroblast cytotoxicity, dose response, cytotoxicity control, cell-based, fluorescence, Alamar Blue, secondary assay (AID 2327); format: functional;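 also: NIH-3T3 mouse fibroblasts cultured with fluconazole at 8 µg/mL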
[9] = target: T4, Replicative DNA helicase DnaB (Mycobacterium tuberculosis, UniProt P9WMR3); test: DnaB intein splicing inhibitors, dose response, biochemical, cell-free fluorescence (AID 449749); format: functional
T4 sequence (P9WMR3 whole entry): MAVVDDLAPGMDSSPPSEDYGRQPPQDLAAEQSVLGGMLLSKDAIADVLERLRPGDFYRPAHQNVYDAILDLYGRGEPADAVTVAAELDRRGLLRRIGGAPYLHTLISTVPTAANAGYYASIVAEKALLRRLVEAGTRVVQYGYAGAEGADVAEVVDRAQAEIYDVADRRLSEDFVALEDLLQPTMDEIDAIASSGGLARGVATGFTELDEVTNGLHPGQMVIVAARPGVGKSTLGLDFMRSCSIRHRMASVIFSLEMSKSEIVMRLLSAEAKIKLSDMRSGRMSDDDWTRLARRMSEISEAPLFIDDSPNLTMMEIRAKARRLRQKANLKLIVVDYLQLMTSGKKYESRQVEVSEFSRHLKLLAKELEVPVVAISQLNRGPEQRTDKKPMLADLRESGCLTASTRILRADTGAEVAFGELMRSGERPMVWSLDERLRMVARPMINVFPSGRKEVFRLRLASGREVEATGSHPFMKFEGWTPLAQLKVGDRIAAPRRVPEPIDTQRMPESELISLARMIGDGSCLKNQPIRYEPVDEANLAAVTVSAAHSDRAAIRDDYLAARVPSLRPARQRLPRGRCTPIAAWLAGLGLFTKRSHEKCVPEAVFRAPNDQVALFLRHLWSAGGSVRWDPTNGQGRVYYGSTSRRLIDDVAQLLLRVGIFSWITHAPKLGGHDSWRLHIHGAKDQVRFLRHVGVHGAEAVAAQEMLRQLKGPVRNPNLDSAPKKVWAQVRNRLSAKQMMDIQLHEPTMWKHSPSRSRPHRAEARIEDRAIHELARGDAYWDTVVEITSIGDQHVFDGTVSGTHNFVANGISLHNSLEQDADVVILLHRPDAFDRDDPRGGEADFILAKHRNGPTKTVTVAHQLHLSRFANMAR

[10] = fluconazole-exposed Candida albicans growth modulators – fluorescence, retest, confirmation (AID 2467); format: functional, cell-based
Aminopeptidase N = target: T5, Aminopeptidase N (Plasmodium falciparum FcB1/Columbia, UniProt O96935); test: malaria alanyl aminopeptidase activity blockers – biochemical, fluorogenic H-Leu-NHMec substrate, 1536-well (AID 1445); parameters: species or system Plasmodium falciparum 3D7, 3D7
T5 sequence (O96935 whole entry): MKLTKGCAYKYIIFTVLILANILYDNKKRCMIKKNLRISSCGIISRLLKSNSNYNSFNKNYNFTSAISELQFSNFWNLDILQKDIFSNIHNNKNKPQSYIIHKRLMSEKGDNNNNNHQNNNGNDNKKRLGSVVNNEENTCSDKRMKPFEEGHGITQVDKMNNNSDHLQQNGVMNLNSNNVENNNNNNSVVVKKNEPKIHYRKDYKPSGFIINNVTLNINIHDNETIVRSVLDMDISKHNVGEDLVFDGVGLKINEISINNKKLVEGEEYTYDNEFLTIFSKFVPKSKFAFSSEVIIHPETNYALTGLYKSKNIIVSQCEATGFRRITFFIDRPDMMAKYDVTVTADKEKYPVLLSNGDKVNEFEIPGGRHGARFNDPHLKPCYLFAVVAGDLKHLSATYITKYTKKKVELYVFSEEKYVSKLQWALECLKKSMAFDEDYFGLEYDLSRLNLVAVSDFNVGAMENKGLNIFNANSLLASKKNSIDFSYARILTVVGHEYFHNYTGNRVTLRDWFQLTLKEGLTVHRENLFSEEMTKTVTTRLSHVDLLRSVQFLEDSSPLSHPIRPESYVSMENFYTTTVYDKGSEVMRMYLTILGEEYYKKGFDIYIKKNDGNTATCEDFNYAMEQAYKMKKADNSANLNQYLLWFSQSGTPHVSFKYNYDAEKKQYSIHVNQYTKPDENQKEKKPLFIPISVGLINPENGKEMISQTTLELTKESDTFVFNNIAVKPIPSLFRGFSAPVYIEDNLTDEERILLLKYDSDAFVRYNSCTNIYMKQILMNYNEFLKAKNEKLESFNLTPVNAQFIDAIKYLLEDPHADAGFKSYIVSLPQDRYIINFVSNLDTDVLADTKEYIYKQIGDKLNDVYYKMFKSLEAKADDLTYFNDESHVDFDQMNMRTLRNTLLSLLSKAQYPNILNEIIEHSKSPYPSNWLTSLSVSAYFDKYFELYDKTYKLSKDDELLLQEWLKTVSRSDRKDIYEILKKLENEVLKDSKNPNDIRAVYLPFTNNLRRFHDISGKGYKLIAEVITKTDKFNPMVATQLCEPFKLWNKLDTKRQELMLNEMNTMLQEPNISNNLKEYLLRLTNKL

Large T antigen = Large T antigen (Simian virus 40, UniProt P03070); format: functional, Betapolyomavirus macacae;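 also: Confirmatory-stage PubChem screen for compounds that inhibit SV40 T antigen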
[11] = target: Induced myeloid leukemia cell differentiation protein Mcl-1 (Homo sapiens, UniProt Q07820); format: functional
Sequence of Induced myeloid leukemia cell differentiation protein Mcl-1 (Q07820 whole entry): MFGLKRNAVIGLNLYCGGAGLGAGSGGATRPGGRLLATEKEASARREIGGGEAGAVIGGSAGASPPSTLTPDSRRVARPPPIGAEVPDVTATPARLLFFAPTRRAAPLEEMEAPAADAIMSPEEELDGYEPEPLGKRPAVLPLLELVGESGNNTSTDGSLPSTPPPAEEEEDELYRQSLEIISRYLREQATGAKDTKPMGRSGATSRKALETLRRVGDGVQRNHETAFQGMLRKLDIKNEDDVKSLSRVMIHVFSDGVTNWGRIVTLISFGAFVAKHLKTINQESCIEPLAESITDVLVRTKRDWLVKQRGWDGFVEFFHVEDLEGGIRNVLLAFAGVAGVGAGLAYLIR

Protein RecA = target: T6, Protein RecA (Mycobacterium tuberculosis, UniProt P9WHJ3); test: Fluorescence Cell-Free Homogeneous Dose Retest to Identify Inhibitors of RecA-Intein Splicing Activity. [Related pubchem assays (depositor defined):AID2097, AID2223, AID489010, AID492950]; format: functional
T6 sequence (P9WHJ3 whole entry): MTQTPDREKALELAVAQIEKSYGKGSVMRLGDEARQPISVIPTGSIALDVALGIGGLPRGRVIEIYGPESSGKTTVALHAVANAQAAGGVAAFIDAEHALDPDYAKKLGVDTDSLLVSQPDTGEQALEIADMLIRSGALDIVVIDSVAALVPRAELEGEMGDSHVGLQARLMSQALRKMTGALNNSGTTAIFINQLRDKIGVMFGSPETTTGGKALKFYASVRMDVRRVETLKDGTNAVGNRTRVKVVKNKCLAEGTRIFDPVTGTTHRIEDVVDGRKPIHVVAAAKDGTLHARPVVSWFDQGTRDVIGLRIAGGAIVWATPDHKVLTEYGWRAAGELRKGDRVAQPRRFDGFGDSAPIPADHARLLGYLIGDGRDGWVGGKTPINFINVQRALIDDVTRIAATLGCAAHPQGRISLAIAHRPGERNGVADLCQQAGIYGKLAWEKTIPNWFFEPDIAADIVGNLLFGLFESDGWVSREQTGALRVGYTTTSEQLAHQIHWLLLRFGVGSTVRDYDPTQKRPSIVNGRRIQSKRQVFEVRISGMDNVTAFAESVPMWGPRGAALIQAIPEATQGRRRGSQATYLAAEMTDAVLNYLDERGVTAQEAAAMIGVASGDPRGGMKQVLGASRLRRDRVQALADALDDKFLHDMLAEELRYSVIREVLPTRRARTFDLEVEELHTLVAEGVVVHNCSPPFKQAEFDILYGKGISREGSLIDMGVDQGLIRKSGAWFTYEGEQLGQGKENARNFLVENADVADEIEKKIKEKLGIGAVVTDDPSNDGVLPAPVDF

Trypsin = Trypsin (Sus scrofa, UniProt P00761); test: trypsin protease activity blockade – biochemical, quenched peptide fluorescence, cherry-pick, selectivity assay for Rce1 protease inhibitor project, dose response (AID 488789)
Kallikrein-7 = Kallikrein-7 (Homo sapiens, UniProt P49862); test: Fluorescence Intensity-based biochemical primary high throughput dose response assay to identify activators of kallikrein-7 (K7) zymogen.
Estrogen receptor beta [12] = target: T7, Estrogen receptor beta (Homo sapiens, UniProt Q92731); test: blockers of SRC-3 recruitment to ERβ – biochemical, ELISA, streptavidin-HRP readout, orthogonal assay, confirmation (AID 1060)
T7 sequence (Q92731 whole entry): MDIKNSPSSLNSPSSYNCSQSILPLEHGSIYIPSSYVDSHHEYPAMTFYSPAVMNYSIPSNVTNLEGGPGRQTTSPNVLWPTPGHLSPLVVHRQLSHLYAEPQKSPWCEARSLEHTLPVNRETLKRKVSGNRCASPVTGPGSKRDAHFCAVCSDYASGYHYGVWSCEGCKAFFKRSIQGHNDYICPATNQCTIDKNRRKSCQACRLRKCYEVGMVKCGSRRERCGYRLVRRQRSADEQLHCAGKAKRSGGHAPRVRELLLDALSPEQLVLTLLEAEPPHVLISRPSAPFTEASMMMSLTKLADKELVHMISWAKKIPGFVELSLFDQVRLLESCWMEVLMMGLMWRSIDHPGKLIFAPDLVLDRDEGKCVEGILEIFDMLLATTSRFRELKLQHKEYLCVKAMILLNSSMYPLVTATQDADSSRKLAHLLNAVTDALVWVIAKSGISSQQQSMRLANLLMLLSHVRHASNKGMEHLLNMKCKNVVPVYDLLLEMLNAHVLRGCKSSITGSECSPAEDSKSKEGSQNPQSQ

Estrogen receptor beta [13] = target: T7, Estrogen receptor beta

Q: For `COC(=O)C1=C(C)N(c2ccccc2)/C(=C/c2cccs2)C1=O`, which IC50 (Bcl-2-like protein 10) is on record?
A: > 50 µM (inactive)

Q: Which IC50 [1] does the source give for `O=S(=O)(c1ccccc1)N(F)S(=O)(=O)c1ccccc1` here?
A: 55.3 µM (active)

Q: Which IC50 (Bcl-2-like protein 10) does the source give for `CCCC1=C(C(=O)OCC)C(c2cc(Cl)cc(OC)c2OCC(=O)OCC)NC(=O)N1` (stereo not drawn) here?
A: > 100 µM (inactive)

Q: Which EC50 (Beta-galactosidase) does the source give for `Cc1sc(Cc2nc(O)cs2)nc1-c1ccccc1` here?
A: > 31.5 µM (inactive)

Q: And the IC50 [2]?
A: > 32 µM

Q: What about the IC50 [3] of the same compound?
A: 15.6 µM (active)

Q: For `Oc1ccccc1C1=Nc2nc3ccccc3n2C(c2ccccc2)C1` (stereo not drawn), which EC50 [4] is on record?
A: 6.95 µM (active)

Q: Which EC50 [4] does the source give for `CCc1ccc(S(=O)(=O)NCCc2csc(-c3ccccc3)n2)s1` here?
A: 4.22 µM (active)

Q: For `Cc1nc2scc(-c3ccccc3)c2c(=O)n1N=C1C=CC(=O)C=C1`, which IC50 [1] is on record?
A: 9.73 µM (active)

Q: What about the EC50 (Beta-galactosidase) of the same compound?
A: > 31.5 µM (inactive)

Q: What about the IC50 [2] of the same compound?
A: 16.5 µM

Q: What about the EC50 [5] of the same compound?
A: 2.23 µM (active)

Q: And the IC50 [3]?
A: 9.24 µM (active)

Q: And the EC50 [6]?
A: 7.47 µM (active)

Q: What about the EC50 [7] of the same compound?
A: 5.96 µM (active)

Q: What does the source list for `O=C(O)COc1ccccc1C(Nc1cccnc1)c1cc(Cl)c2cccnc2c1O` (stereo not drawn)?
A: EC50 [8]: > 150 µM (inactive); AC50 [9]: > 380 µM (inactive); EC50 [10]: > 38 µM (not active); IC50 (Aminopeptidase N): 38.4 µM (active); IC50 (Large T antigen): 10.3 µM (active); IC50 [11]: 1.71 µM (active); EC50 (Protein RecA): 11.8 µM (active)

Q: Which results are given for `O=C1NC(c2ccc(Br)cc2)Nc2ccccc21` (stereo not drawn)?
A: AC50 (Trypsin): 15.3 µM (active); EC50 (Kallikrein-7): > 69.5 µM (inactive)

Q: For `CSc1ccccc1NC(=O)c1noc2c1CCC2`, which IC50 (Estrogen receptor beta [12]) is on record?
A: > 50 µM (not active)

Q: What about the IC50 (Estrogen receptor beta [13]) of the same compound?
A: 3.77 µM (active)

Q: And the IC50 (Bcl-2-like protein 10)?
A: 12.6 µM (active)

Q: With `COc1ccc(N(CC(=O)Nc2cccc(C(F)(F)F)c2)S(C)(=O)=O)cc1` as the compound, how does the EC50 [4] read?
A: 7.98 µM (active)
